Structures can show the parent of a compound that is named as a salt. Where two headings read alike, the source gives them in different places.
System: mitochondrial membrane potential (MMP) in HepG2 cells
Test: qHTS mitochondrial membrane potential (MMP) assay with m-MPI dye, multiplexed with CellTiter-Glo cell viability
Type: cell-based, human
Conditions: for Emax: read-out: Efficacy; for MMP assay activity outcome (active antagonist / inactive / inconclusive): call from triplicate runs, multichannel readout and cell viability
[1] = Homo sapiens, HepG2, 1 h, read-out: Potency
[2] = Homo sapiens, HepG2 cells, 1 hr treatment, ratio 590 nm/535 nm, read-out: IC50 in the MMP assay (decrease of MMP)
[3] = Table S4, 20 most potent active compounds for the MMP screen, HepG2, 1 hr
[4] = Table S4, 20 most potent active compounds for the MMP screen, HepG2, 1 hr, read-out: Potency
[5] = HepG2 cells, 1 hr treatment, ratio 590 nm/535 nm, read-out: IC50 in the MMP assay (decrease of MMP)

Nc1ccc(N)c2c1C(=O)c1ccccc1C2=O [1,4-Diaminoanthraquinone]
Emax (Homo sapiens, HepG2, 1 h): 82% | IC50 [1]: 33.1 nM

O=C1c2c(O)ccc([N+](=O)[O-])c2C(=O)c2c([N+](=O)[O-])ccc(O)c21 [1,8-Dihydroxy-4,5-dinitroanthraquinone]
Efficacy: 86.4% | IC50 (read-out: Potency): 73.4 nM

O=C(c1ccccc1O)c1ccccc1O [2,2´-dihydroxybenzophenone]
IC50 [2]: 14100 nM

Oc1c(Cl)c(Cl)c(Cl)c(Cl)c1Cl [2,3,4,5,6-pentachlorophenol]
MMP assay activity outcome (active antagonist / inactive / inconclusive) (HepG2 cells, 1 hr treatment): active

NNc1nc(-c2ccc(N)cc2)cs1 [2-Hydrazino-4-(4-aminophenyl) thiazole]
Efficacy [3]: 82.5% | IC50 [4]: 63.5 nM

COc1ccc(C(=O)c2ccccc2)c(O)c1 [2-hydroxy-4-methoxybenzophenone]
MMP assay activity outcome (active antagonist / inactive / inconclusive) (HepG2 cells, 1 hr treatment): not active

O=C(c1ccccc1)c1ccccc1O [2-hydroxybenzophenone]
MMP assay activity outcome (active antagonist / inactive / inconclusive) (HepG2 cells, 1 hr treatment): inactive

O=C(c1ccccc1)c1cccc(O)c1 [3-hydroxybenzophenone]
IC50 [2]: 27700 nM

O=C(c1ccc(Cl)cc1)c1ccc(Cl)cc1 [4,4´-dichlorobenzophenone]
MMP assay activity outcome (active antagonist / inactive / inconclusive) (HepG2 cells, 1 hr treatment): inactive

O=C(c1ccc(O)cc1)c1ccc(O)cc1 [4,4´-dihydoxybenzophenone]
MMP assay activity outcome (active antagonist / inactive / inconclusive) (HepG2 cells, 1 hr treatment): inconclusive

CC(C)(c1ccccc1)c1ccc(O)cc1 [4-(1-methyl-1-phenylethyl)phenol]
MMP assay activity outcome (active antagonist / inactive / inconclusive) (HepG2 cells, 1 hr treatment): active

Nc1ccc(O)cc1 [4-aminophenol]
MMP assay activity outcome (active antagonist / inactive / inconclusive) (HepG2 cells, 1 hr treatment): active

O=C(c1ccccc1)c1ccc(O)cc1 [4-hydroxybenzophenone]
IC50 [2]: 41300 nM

Cc1ccc(C(=O)c2ccccc2)cc1 [4-methylbenzophenone]
MMP assay activity outcome (active antagonist / inactive / inconclusive) (HepG2 cells, 1 hr treatment): inactive

O=C(c1ccccc1)c1ccccc1 [Benzophenone]
MMP assay activity outcome (active antagonist / inactive / inconclusive) (HepG2 cells, 1 hr treatment): inactive

CCC[CH2][Sn]([CH2]CCC)([CH2]CCC)[O][Sn]([CH2]CCC)([CH2]CCC)[CH2]CCC [Bis(tributyltin)oxide]
Efficacy: 112.1% | Potency rank in the MMP screen: among the most potent compounds | IC50 (read-out: Potency): 91.1 nM

Cl.N=C1C=CC(=C(c2ccc(N)cc2)c2ccc(N)cc2)C=C1 [C.I. Basic red 9 monohydrochloride]
Potency rank in the MMP screen (HepG2 cells, 1 hr treatment): among the most potent compounds | Efficacy [3]: 95.3% | IC50 [4]: 77 nM

CCOCn1c(-c2ccc(Cl)cc2)c(C#N)c(Br)c1C(F)(F)F [Chlorfenapyr]
Emax (Homo sapiens, HepG2, 1 h): 105% | IC50 [1]: 74.1 nM

CCN1/C(=C/C=C/C=C/c2sc3ccccc3[n+]2CC)Sc2ccccc21 [Dithiazanine iodide]
Emax (Homo sapiens, HepG2, 1 h): 85.4% | IC50 [1]: 95.8 nM

N#CC(C#N)=NNc1ccc(OC(F)(F)F)cc1 [FCCP, carbonyl cyanide 4-(trifluoromethoxy) phenylhydrazone, reference compound]
IC50 (Homo sapiens, HepG2, 1 h, read-out: IC50 of the positive control, decrease of MMP (mean ± SD)): 110 ± 70 nM

O=C1OC2(c3ccc(O)cc3Oc3cc(O)ccc32)c2ccccc21 [Fluorescein]
Emax (Homo sapiens, HepG2, 1 h): 112% | IC50 [1]: 105 nM

CN(C)c1ccc(C(=C2C=CC(=[N+](C)C)C=C2)c2ccc(N(C)C)cc2)cc1 [Gentian violet]
Emax (Homo sapiens, HepG2, 1 h): 91.9% | IC50 [1]: 78.8 nM

O=C(Nc1ccc([N+](=O)[O-])cc1Cl)c1cc(Cl)ccc1O [Niclosamide, reference compound]
Emax (Homo sapiens, HepG2, 1 h): 97.7% | IC50 [1]: 26.3 nM

COc1cccc2c1C(=O)c1c(O)c3c(c(O)c1C2=O)C[C@@](O)(C(=O)CO)C[C@@H]3O[C@H]1C[C@H](N)[C@H](O[C@@H]2CCCCO2)[C@H](C)O1 [Pirarubicin, reference compound]
IC50 [2]: 600 nM

C[C@@H]1O[C@@H](O[C@@H]2C=C3CC[C@@H]4[C@H](CC[C@]5(C)[C@@H](c6ccc(=O)oc6)CC[C@]45O)[C@@]3(C)CC2)[C@H](O)[C@H](O)[C@H]1O [Proscillaridin, reference compound]
Potency rank in the MMP screen (HepG2 cells, 1 hr treatment): among the most potent compounds | Emax (Homo sapiens, HepG2, 1 h): 72.4% | IC50 [1]: 86.8 nM

CCC[CH2][Sn]([Cl])([CH2]CCC)[CH2]CCC [Tributyltin chloride]
Efficacy: 96.9% | Potency rank in the MMP screen: among the most potent compounds | IC50 (read-out: Potency): 107 nM

CC(=O)[O][Sn]([c]1ccccc1)([c]1ccccc1)[c]1ccccc1 [Triphenyltin acetate]
Efficacy: 98.7% | Potency rank in the MMP screen (HepG2 cells, 1 hr treatment): among the most potent compounds | IC50 (read-out: Potency): 117 nM

[OH-].c1cc[c]([Sn+]([c]2ccccc2)[c]2ccccc2)cc1 [Triphenyltin hydroxide]
Efficacy: 94.7% | Potency rank in the MMP screen (HepG2 cells, 1 hr treatment): among the most potent compounds | IC50 (read-out: Potency): 122 nM

CC[C@@]1(O)C[C@H](O[C@H]2C[C@H](N(C)C)[C@H](O[C@H]3C[C@H](O)[C@H](O[C@H]4CCC(=O)[C@H](C)O4)[C@H](C)O3)[C@H](C)O2)c2c(cc3c(c2O)C(=O)c2c(O)cccc2C3=O)[C@H]1C(=O)OC [aclarubicin hydrochloride, reference compound]
MMP assay activity outcome (active antagonist / inactive / inconclusive) (HepG2 cells, 1 hr treatment): active

COc1cccc2c1C(=O)c1c(O)c3c(c(O)c1C2=O)C[C@@](O)(C(=O)CO)C[C@@H]3O[C@H]1C[C@H](N)[C@H](O)[C@H](C)O1 [adriamycin hydrochloride, reference compound]
MMP assay activity outcome (active antagonist / inactive / inconclusive) (HepG2 cells, 1 hr treatment): inactive

ClC1=C(Cl)C2(Cl)C3C4C=CC(C4)C3C1(Cl)C2(Cl)Cl (stereo not shown) [aldrin]
MMP assay activity outcome (active antagonist / inactive / inconclusive) (HepG2 cells, 1 hr treatment): active as antagonists

CCN=C1C=CC(=C(c2ccc(N(CC)CC)cc2)c2ccc(N(CC)CC)cc2)c2ccccc21.Cl [basic blue 7, Basic blue 7]
Potency rank in the MMP screen (HepG2 cells, 1 hr treatment): among the most potent compounds | IC50 [5]: 18.5 nM | Efficacy [3]: 86.6%

CCC/C=C/C=C/C(=O)O[C@H]1/C(=C/C(=O)OC)C[C@H]2C[C@H]([C@@H](C)O)OC(=O)C[C@H](O)C[C@@H]3C[C@H](OC(C)=O)C(C)(C)[C@](O)(C[C@@H]4C/C(=C/C(=O)OC)C[C@H](/C=C/C(C)(C)[C@]1(O)O2)O4)O3 [bryostatin 1, Bryostatin 1, reference compound]
Emax (Homo sapiens, HepG2, 1 h): 105% | IC50 [1]: 9.58 nM | IC50 [2]: 9.6 nM

CCN1/C(=C/C=C/c2ccc3ccccc3[n+]2CC)C=Cc2ccccc21.[I-] [carbocyanine, Carbocyanine]
Efficacy [3]: 90.7% | IC50 [4]: 14.7 nM

O=C(O)C1C(C(=O)O)C2(Cl)C(Cl)=C(Cl)C1(Cl)C2(Cl)Cl (stereo not shown) [chlorendic acid]
MMP assay activity outcome (active antagonist / inactive / inconclusive) (HepG2 cells, 1 hr treatment): inactive

CO[C@@H]1[C@H](O)C[C@@H](O[C@@H]2C[C@H](Oc3cc4cc5c(c(O)c4c(O)c3C)C(=O)[C@@H](O[C@H]3C[C@@H](O[C@H]4C[C@@H](O[C@H]6C[C@](C)(O)[C@@H](OC(C)=O)[C@H](C)O6)[C@H](O)[C@@H](C)O4)[C@H](O)[C@@H](C)O3)[C@H]([C@H](OC)C(=O)[C@@H](O)[C@@H](C)O)C5)O[C@H](C)[C@@H]2OC(C)=O)O[C@@H]1C [chromomycin A3]
MMP assay activity outcome (active antagonist / inactive / inconclusive) (HepG2 cells, 1 hr treatment): active

O=[N+]([O-])c1ccc(O)c([N+](=O)[O-])c1 [dinitrophenol, reference compound]
MMP assay activity outcome (active antagonist / inactive / inconclusive) (HepG2 cells, 1 hr treatment): inconclusive antagonist (cytotoxic)

CCCCCCCCCCCCOC(=O)c1ccc(O)cc1 [dodecylparaben]
IC50 [5]: 4200 nM

COC(=O)c1ccc(O)cc1 [methylparaben]
MMP assay activity outcome (active antagonist / inactive / inconclusive) (HepG2 cells, 1 hr treatment): inactive

COc1ccc(C(=O)c2ccc(C)cc2)c(O)c1 [mexenone]
MMP assay activity outcome (active antagonist / inactive / inconclusive) (HepG2 cells, 1 hr treatment): not active

C[C@@H]1O[C@@H](O[C@H]2C[C@@H](O)[C@]3(CO)[C@H]4[C@H](O)C[C@]5(C)[C@@H](C6=CC(=O)OC6)CC[C@]5(O)[C@@H]4CC[C@]3(O)C2)[C@H](O)[C@H](O)[C@H]1O [ouabain, reference compound]
Potency rank in the MMP screen (HepG2 cells, 1 hr treatment): among the most potent compounds

COc1ccc(Cc2nccc3cc(OC)c(OC)cc23)cc1OC [papaverine, reference compound]
MMP assay activity outcome (active antagonist / inactive / inconclusive) (HepG2 cells, 1 hr treatment): inconclusive antagonist (cytotoxic)

CCCCCOC(=O)c1ccc(O)cc1 [pentylparaben]
IC50 [2]: 8700 nM

CCCOC(=O)c1ccc(O)cc1 [propylparaben]
IC50 [2]: 38600 nM

C=C(C)[C@H]1Cc2c(ccc3c2O[C@@H]2COc4cc(OC)c(OC)cc4[C@@H]2C3=O)O1 [rotenone, reference compound]
MMP assay activity outcome (active antagonist / inactive / inconclusive) (HepG2 cells, 1 hr treatment): inconclusive antagonist (cytotoxic)

CC1(C)C(C(Cl)Cl)C2(Cl)C(Cl)C(Cl)C1(Cl)C2(Cl)Cl (stereo not shown) [toxaphene]
MMP assay activity outcome (active antagonist / inactive / inconclusive) (HepG2 cells, 1 hr treatment): active as antagonists

CCCCC(=O)OCC(=O)[C@]1(O)Cc2c(O)c3c(c(O)c2[C@@H](O[C@H]2C[C@H](NC(=O)C(F)(F)F)[C@H](O)[C@H](C)O2)C1)C(=O)c1c(OC)cccc1C3=O [valrubicin, reference compound]
IC50 [2]: 1900 nM

Methyl violet
Efficacy: 121.5% | Potency rank in the MMP screen (HepG2 cells, 1 hr treatment): among the most potent compounds | IC50 (read-out: Potency): 65.3 nM

plicamycin [reference compound]
MMP assay activity outcome (active antagonist / inactive / inconclusive) (HepG2 cells, 1 hr treatment): active
